Experimental data reported in the CheMixHub viscosity set.

Experiment: xn = mol fraction of the nth substance listed

CCn1cc[n+](C)c1.O=S(=O)([O-])C(F)(F)F + CC1COC(=O)O1
101 kPa
Details | viscosity [mPa·s]
298.15 K, x1 = 0.6987 | 21.65
303.15 K, x1 = 0.0999 | 3.915
303.15 K, x1 = 0.1999 | 5.315
303.15 K, x1 = 0.6987 | 18.45
308.15 K, x1 = 0.1999 | 4.575
313.15 K, x1 = 0.3998 | 6.675
318.15 K, x1 = 0.8998 | 17.65
323.15 K, x1 = 0.0999 | 2.425
323.15 K, x1 = 0.3998 | 5.115

Cc1ccccc1O + CC12CCC(CC1)C(C)(C)O2
viscosity [mPa·s], 101 kPa
Details | x2 = 0.0644 | x2 = 0.1341 | x2 = 0.2098 | x2 = 0.2923 | x2 = 0.3825 | x2 = 0.4817 | x2 = 0.5911 | x2 = 0.7125 | x2 = 0.8479
303.15 K | 6.716 | 7.057 | 7.387 | 7.431 | 7.201 | 6.63 | 5.917 | 4.949 | 3.732
308.15 K | 5.48 | 5.76 | 5.997 | 6.081 | 5.929 | 5.628 | 5.058 | 4.201 | 3.201
313.15 K | 4.569 | 4.81 | 4.944 | 5.041 | 5.032 | 4.696 | 4.12 | 3.359 | 2.48

C=CC(=O)OC + CC#N
viscosity [mPa·s], 100 kPa
Details | 293.15 K | 298.15 K | 303.15 K | 308.15 K | 313.15 K | 318.15 K
x2 = 0.0591 | 0.4934 | 0.4511 | 0.4118 | 0.3786 | 0.3488 | 0.3221
x2 = 0.1171 | 0.4832 | 0.4422 | 0.4042 | 0.3721 | 0.3431 | 0.3171
x2 = 0.17 | 0.474 | 0.4343 | 0.3976 | 0.3664 | 0.3383 | 0.313
x2 = 0.2356 | 0.4627 | 0.4247 | 0.3896 | 0.3597 | 0.3327 | 0.3083
x2 = 0.2977 | 0.4524 | 0.416 | 0.3824 | 0.3537 | 0.3278 | 0.3043
x2 = 0.3615 | 0.4422 | 0.4074 | 0.3754 | 0.348 | 0.3232 | 0.3007
x2 = 0.4343 | 0.431 | 0.398 | 0.3679 | 0.3419 | 0.3185 | 0.2971
x2 = 0.5014 | 0.4212 | 0.3899 | 0.3614 | 0.3368 | 0.3146 | 0.2943
x2 = 0.5738 | 0.4112 | 0.3818 | 0.3551 | 0.332 | 0.311 | 0.2918
x2 = 0.6537 | 0.4009 | 0.3736 | 0.349 | 0.3274 | 0.3078 | 0.2897
x2 = 0.7623 | 0.3881 | 0.3635 | 0.3417 | 0.3223 | 0.3046 | 0.2883
x2 = 0.8155 | 0.3823 | 0.3592 | 0.3387 | 0.3204 | 0.3037 | 0.2882
x2 = 0.9074 | 0.3729 | 0.3523 | 0.3342 | 0.3179 | 0.303 | 0.2889

C=CC(=O)OCCCC + CC#N
viscosity [mPa·s], 100 kPa
Details | 293.15 K | 298.15 K | 303.15 K | 308.15 K | 313.15 K | 318.15 K
x2 = 0.061 | 0.8625 | 0.8036 | 0.7492 | 0.6997 | 0.6541 | 0.611
x2 = 0.1168 | 0.8292 | 0.7725 | 0.7202 | 0.6725 | 0.6285 | 0.587
x2 = 0.1832 | 0.7901 | 0.7361 | 0.6864 | 0.641 | 0.5992 | 0.5596
x2 = 0.2571 | 0.7473 | 0.6964 | 0.6497 | 0.607 | 0.5677 | 0.5304
x2 = 0.3094 | 0.7174 | 0.6687 | 0.6241 | 0.5834 | 0.5459 | 0.5103
x2 = 0.3825 | 0.6761 | 0.6306 | 0.589 | 0.551 | 0.516 | 0.4829
x2 = 0.4563 | 0.6351 | 0.5928 | 0.5542 | 0.519 | 0.4866 | 0.4558
x2 = 0.5282 | 0.5958 | 0.5566 | 0.521 | 0.4885 | 0.4585 | 0.4301
x2 = 0.5779 | 0.569 | 0.532 | 0.4985 | 0.4678 | 0.4395 | 0.4126
x2 = 0.6483 | 0.5319 | 0.4979 | 0.4672 | 0.4391 | 0.4132 | 0.3886
x2 = 0.7299 | 0.49 | 0.4596 | 0.4322 | 0.4071 | 0.384 | 0.362
x2 = 0.8143 | 0.4484 | 0.4216 | 0.3977 | 0.3758 | 0.3556 | 0.3364
x2 = 0.9182 | 0.3998 | 0.3778 | 0.3584 | 0.3405 | 0.3241 | 0.3086

CC(C)CO + CC#N
viscosity [mPa·s]
Details | x2 = 0.1676 | x2 = 0.3118 | x2 = 0.4373 | x2 = 0.5476 | x2 = 0.6442 | x2 = 0.7304 | x2 = 0.8083 | x2 = 0.8784 | x2 = 0.942 | x2 = 0.9432
298.15 K, 101.3 kPa | 1.788 | 1.186 | 0.87 | 0.692 | 0.567 | 0.483 | 0.434 | 0.395 | 0.371 | –
303.15 K, 101 kPa | – | – | – | – | – | – | – | – | – | 0.5569
303.15 K, 101.3 kPa | 1.582 | 1.064 | 0.793 | 0.634 | 0.532 | 0.455 | 0.411 | 0.376 | 0.362 | –
308.15 K, 101.3 kPa | 1.389 | 0.962 | 0.725 | 0.586 | 0.494 | 0.428 | 0.39 | 0.358 | 0.344 | –
313.15 K, 101.3 kPa | 1.232 | 0.869 | 0.664 | 0.548 | 0.461 | 0.405 | 0.373 | 0.342 | 0.324 | –

CCCCCOC(C)=O + CC(=O)O
viscosity [mPa·s], 101 kPa
Details | x1 = 0.0945 | x1 = 0.2018 | x1 = 0.3035 | x1 = 0.4048 | x1 = 0.4599 | x1 = 0.5117 | x1 = 0.6074 | x1 = 0.6957 | x1 = 0.7878 | x1 = 0.8912
298.15 K | 1.055 | 1.049 | 0.994 | 0.978 | 1.002 | 1.006 | 0.98 | 0.974 | 0.917 | 0.881
313.15 K | 0.853 | 0.831 | 0.799 | 0.781 | 0.797 | 0.798 | 0.777 | 0.772 | 0.734 | 0.708
